Laboratory results reported in PMC9352556, “Glycogen synthase kinase homolog Rim11 regulates lipid synthesis through the phosphorylation of Pah1 phosphatidate phosphatase in yeast” (The Journal of Biological Chemistry, 2022).
Values belong to the molecule of their own block, whether it stands above or below them.

Columns and labels:
[1] = target: T1, Pah1 (Saccharomyces cerevisiae, UniProt P32567); experiment: release of […] from […]PA, Triton X-100/PA mixed micelles; assay type: biochemical; settings: unphosphorylated Pah1; surface concentration of PA in micelles; cooperative, n = 3.4; 1 mM MgCl2, pH 7.5, 30 °C; labelled compound
T1 construct: unphosphorylated
T1 sequence (P32567 1-862): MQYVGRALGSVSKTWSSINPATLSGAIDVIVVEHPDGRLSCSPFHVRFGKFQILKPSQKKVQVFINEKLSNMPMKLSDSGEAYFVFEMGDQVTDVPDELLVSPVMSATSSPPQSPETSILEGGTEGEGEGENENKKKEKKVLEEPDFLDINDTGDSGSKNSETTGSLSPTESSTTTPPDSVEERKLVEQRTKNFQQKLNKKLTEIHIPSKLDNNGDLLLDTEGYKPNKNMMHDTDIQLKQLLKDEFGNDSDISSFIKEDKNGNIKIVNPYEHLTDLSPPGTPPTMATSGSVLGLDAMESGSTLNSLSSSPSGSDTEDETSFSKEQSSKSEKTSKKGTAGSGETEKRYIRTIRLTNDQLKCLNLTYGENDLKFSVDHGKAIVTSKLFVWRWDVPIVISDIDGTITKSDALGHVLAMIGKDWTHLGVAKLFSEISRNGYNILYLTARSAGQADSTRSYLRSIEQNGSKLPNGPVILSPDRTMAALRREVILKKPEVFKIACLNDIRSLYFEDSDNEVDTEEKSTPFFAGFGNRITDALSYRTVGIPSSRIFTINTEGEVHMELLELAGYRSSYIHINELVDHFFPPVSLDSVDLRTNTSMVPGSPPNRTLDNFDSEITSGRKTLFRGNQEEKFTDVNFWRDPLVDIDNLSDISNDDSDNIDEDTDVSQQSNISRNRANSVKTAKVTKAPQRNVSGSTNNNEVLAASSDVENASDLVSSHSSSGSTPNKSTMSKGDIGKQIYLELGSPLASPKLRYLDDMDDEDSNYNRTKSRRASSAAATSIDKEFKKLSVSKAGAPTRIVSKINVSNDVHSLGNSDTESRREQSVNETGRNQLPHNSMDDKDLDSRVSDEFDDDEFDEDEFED

[2] = substrate: Nc1ncnc2c1ncn2[C@@H]1O[C@H](COP(=O)(O)OP(=O)(O)OP(=O)(O)O)[C@@H](O)[C@H]1O; experiment: purified protein; assay type: biochemical, Saccharomyces cerevisiae; settings: co-substrate 0.25 μM E. coli-expressed Pah1, 10 mM MgCl2, pH 7.5, 30 °C, labelled compound

Km [1]: 4.2 mol %
Molecule: phosphatidate

B1: Rim11 (Saccharomyces cerevisiae S288C) (protein)
chain: MNIQSNNSPNLSNNIVSKQVYYAHPPPTIDPNDPVQISFPTTEVVGHGSFGVVFATVIQETNEKVAIKKVLQDKRFKNRELEIMKMLSHINIIDLKYFFYERDSQDEIYLNLILEYMPQSLYQRLRHFVHQRTPMSRLEIKYYMFQLFKSLNYLHHFANVCHRDIKPQNLLVDPETWSLKLCDFGSAKQLKPTEPNVSYICSRYYRAPELIFGATNYTNQIDIWSSGCVMAELLLGQPMFPGESGIDQLVEIIKILGTPSKQEICSMNPNYMEHKFPQIKPIPLSRVFKKEDDQTVEFLADVLKYDPLERFNALQCLCSPYFDELKLDDGKINQITTDLKLLEFDENVELGHLSPDELSSVKKKLYPKSK
notes: purified from S. cerevisiae (pSK001, pYES2); endogenously phosphorylated (Tyr199)
Km [2]: 30 µM
